Measurements: patent publication US10882871B2, “18/19F-labelled compounds which target the prostate specific membrane antigen” (BRITISH COLUMBIA CANCER AGENCY BRANCH, priority 2016, dated 2021)
Values joined by “and” are separate entries in the source; they are usually repeats but may differ in a detail not shown here. Equal values may be shown once.

System: tumors derived from LNCaP cells
Experiment: PET/CT imaging and biodistribution of F-18 labeled HTK-01069 and HTK-01070 in tumor-bearing mice
Type: in vivo, mouse (NODSCID 1L2RγKO male mice)
Procedure: LNCap cell line used in the tumor model was obtained commercially from ATTC (LNCaP clone FGC, CRL-1740). It was established from a metastatic site of left supraclavicular lymph node of human prostatic adenocarcinoma. Cells were cultured in PRMI 1640 (StemCell Technologies, Vancouver, BC) supplemented by 10% FBS, 100 U/mL penicillin and 100 μg/mL streptomycin at 37° C. in a humidified incubator containing 5% CO2. Cells grown to 80-90% confluence were then washed with sterile phosphate-buffered saline (1×PBS pH 7.4) and trypsinization. The collected cells number was counted with Hemacytometer (Hausser Scientific).
Tumor implantation: Imaging and biodistribution experiments were performed using NODSCID 1L2RγKO male mice. Three or four mice in each cage equipped with enrichments. The mice were maintained and the experiments were conducted in according to the guidelines established by Canadian Council on Animal Care and approved by Animal Ethics Committee of the University of British Columbia. Mice were housed under pathogen-free conditions and kept on twelve hours light and twelve hours dark cycle in the Animal Research Centre, British Columbia Cancer Research Centre, Vancouver, Canada.
Mice were anesthetized by inhalation with 2.5% isoflurane in 2.0 L/min of oxygen during cells implantation. Mice were implanted subcutaneously with 1×10^7 LNCaP cells behind left shoulder. Mice were imaged or used in biodistribution studies when the tumor grew up to reach 5-8 mm in diameter during 5-6 weeks.
PET/CT Imaging: PET imaging experiments were conducted using Siemens inveon micro PET/CT scanner. Each tumor bearing mouse was injected ˜6.44 MBq of F-18 labeled HTK-01069 and ˜7.08 MBq of F-18 labeled HTK-01070 through the tail vein under anesthesia. After one hour, the mice were sedated again with 2% isoflurane inhalation and positioned in the scanner. Static PET imaging was performed to determined activity uptake of tumor and other organs. A CT scan was obtained for localization and attenuation correction after segmentation for reconstructing the PET images. The data was acquired by scanning the mice for 10 minutes each. The mice were kept warm by a heating pad during acquisition. The mice were euthanized after imaging and followed by biodistribution. Please see FIGS. 2 and 3 of this specification for reconstructed PET images for 1L2RγKO mice injected with HTK-01069 and HTK-01070 respectively.
Blood was withdrawn immediately, and the organs of interest were quickly removed. Each organ was weighed and the tissue radioactivity was measured with a Cobra II gamma counter (Packard), normalized to the injected dose using a standard curve and expressed as the percentage of the injected dose per gram of tissue (% ID/g). Biodistribution data are shown for HTK-01069 in Tables 5, 6 and 7 and HTK-01070 in Tables 8, 9, 10 of the specification respectively.

[1] = 1 h p.i. with co-injection of 0.5 mg DCFPyL, Avg
[2] = 1 h p.i. with co-injection of 0.5 mg DCFPyL, single mice

- Biodistribution Adrenals [1]: 0.35 % ID/g
- Biodistribution Blood [1]: 0.45 % ID/g
- Biodistribution Bone [1]: 0.13 % ID/g
- Biodistribution Brain [1]: 0.03 % ID/g
- Biodistribution Fat [1]: 0.11 % ID/g
- Biodistribution Heart [1]: 0.25 % ID/g
- Biodistribution Intestine [1]: 0.57 % ID/g
- Biodistribution Kidney [1]: 3.54 % ID/g
- Biodistribution Liver [1]: 0.11 % ID/g
- Biodistribution Lung [1]: 0.15 % ID/g
- Biodistribution Muscle [1]: 0.30 % ID/g
- Biodistribution Pancreas [1]: 3.00 % ID/g
- Biodistribution Seminal [1]: 0.38 % ID/g
- Biodistribution Spleen [1]: 0.11 % ID/g
- Biodistribution Stomach [1]: 0.13 % ID/g
- Biodistribution Tail [1]: 0.44 % ID/g
- Biodistribution Testes [1]: 0.10 % ID/g
- Biodistribution Tumour [1]: 0.33 % ID/g
- Biodistribution Adrenals (1 h p.i., Avg): 3.98 % ID/g
- Biodistribution Blood (1 h p.i., Avg): 0.52 % ID/g
- Biodistribution Bone (1 h p.i., Avg): 0.27 % ID/g
- Biodistribution Brain (1 h p.i., Avg): 0.03 % ID/g
- Biodistribution Fat (1 h p.i., Avg): 1.09 % ID/g
- Biodistribution Heart (1 h p.i., Avg): 1.16 % ID/g
- Biodistribution Intestine (1 h p.i., Avg): 0.55 % ID/g
- Biodistribution Kidney (1 h p.i., Avg): 92.90 % ID/g
- Biodistribution Liver (1 h p.i., Avg): 0.14 % ID/g
- Biodistribution Lung (1 h p.i., Avg): 0.26 % ID/g
- Biodistribution Muscle (1 h p.i., Avg): 0.36 % ID/g
- Biodistribution Pancreas (1 h p.i., Avg): 2.77 % ID/g
- Biodistribution Seminal (1 h p.i., Avg): 2.82 % ID/g
- Biodistribution Spleen (1 h p.i., Avg): 0.48 % ID/g
- Biodistribution Stomach (1 h p.i., Avg): 2.99 % ID/g
- Biodistribution Tail (1 h p.i., Avg): 0.62 % ID/g
- Biodistribution Testes (1 h p.i., Avg): 0.53 % ID/g
- Biodistribution Tumour (1 h p.i., Avg): 5.58 % ID/g
- Biodistribution Brain (1 h p.i., single mice): 0.03 % ID/g
- Biodistribution Adrenals (2 h p.i., Avg): 2.01 % ID/g
- Biodistribution Blood (2 h p.i., Avg): 0.16 % ID/g
- Biodistribution Bone (2 h p.i., Avg): 0.12 % ID/g
- Biodistribution Brain (2 h p.i., Avg): 0.03 % ID/g
- Biodistribution Fat (2 h p.i., Avg): 0.43 % ID/g
- Biodistribution Heart (2 h p.i., Avg): 0.72 % ID/g
- Biodistribution Intestine (2 h p.i., Avg): 0.75 % ID/g
- Biodistribution Kidney (2 h p.i., Avg): 51.79 % ID/g
- Biodistribution Liver (2 h p.i., Avg): 0.06 % ID/g
- Biodistribution Lung (2 h p.i., Avg): 0.12 % ID/g
- Biodistribution Muscle (2 h p.i., Avg): 0.24 % ID/g
- Biodistribution Pancreas (2 h p.i., Avg): 2.24 % ID/g
- Biodistribution Seminal (2 h p.i., Avg): 3.24 % ID/g
- Biodistribution Spleen (2 h p.i., Avg): 0.26 % ID/g
- Biodistribution Stomach (2 h p.i., Avg): 2.25 % ID/g
- Biodistribution Tail (2 h p.i., Avg): 0.31 % ID/g
- Biodistribution Testes (2 h p.i., Avg): 0.39 % ID/g
- Biodistribution Tumour (2 h p.i., Avg): 5.36 % ID/g
Compound: C[N+](C)(Cc1ccc(C(=O)NCCCC[C@H](NC(=O)N[C@@H](CCC(=O)O)C(=O)O)C(=O)O)cc1)C[B-](F)(F)[18F] [F-18 HTK-01069]
- Biodistribution Bone [2]: 0.15 % ID/g and 0.17 % ID/g and 0.11 % ID/g and 0.10 % ID/g
- Biodistribution Brain [2]: 0.02 % ID/g and 0.03 % ID/g and 0.04 % ID/g
- Biodistribution Heart [2]: 0.17 % ID/g and 0.31 % ID/g and 0.27 % ID/g and 0.26 % ID/g
- Biodistribution Kidney [2]: 2.35 % ID/g and 3.57 % ID/g and 4.08 % ID/g and 4.15 % ID/g
- Biodistribution Lung [2]: 0.10 % ID/g and 0.20 % ID/g and 0.16 % ID/g and 0.13 % ID/g
- Biodistribution Muscle [2]: 0.22 % ID/g and 0.36 % ID/g and 0.37 % ID/g and 0.26 % ID/g
- Biodistribution Pancreas [2]: 2.40 % ID/g and 3.36 % ID/g and 2.71 % ID/g and 3.53 % ID/g
- Biodistribution Stomach [2]: 0.08 % ID/g and 0.13 % ID/g and 0.15 % ID/g
- Biodistribution Tail [2]: 0.43 % ID/g and 0.41 % ID/g and 0.37 % ID/g and 0.55 % ID/g
- Biodistribution Testes [2]: 0.07 % ID/g and 0.13 % ID/g and 0.12 % ID/g and 0.09 % ID/g
- Biodistribution Tumour [2]: 0.30 % ID/g and 0.35 % ID/g and 0.26 % ID/g and 0.42 % ID/g
- Biodistribution Fat (1 h p.i., single mice): 0.95 % ID/g and 1.21 % ID/g and 0.74 % ID/g and 1.46 % ID/g
- Biodistribution Intestine (1 h p.i., single mice): 0.43 % ID/g and 0.59 % ID/g and 0.54 % ID/g and 0.64 % ID/g
- Biodistribution Lung (1 h p.i., single mice): 0.21 % ID/g and 0.28 % ID/g and 0.22 % ID/g and 0.32 % ID/g
- Biodistribution Muscle (1 h p.i., single mice): 0.36 % ID/g and 0.39 % ID/g and 0.34 % ID/g and 0.35 % ID/g
- Biodistribution Pancreas (1 h p.i., single mice): 2.32 % ID/g and 2.86 % ID/g and 2.76 % ID/g and 3.17 % ID/g
- Biodistribution Tail (1 h p.i., single mice): 0.70 % ID/g and 0.47 % ID/g and 0.57 % ID/g and 0.74 % ID/g
- Biodistribution Testes (1 h p.i., single mice): 0.44 % ID/g and 0.58 % ID/g and 0.51 % ID/g and 0.60 % ID/g
- Biodistribution Tumour (1 h p.i., single mice): 7.84 % ID/g and 4.16 % ID/g and 4.47 % ID/g and 5.86 % ID/g
- Biodistribution Bone (2 h p.i., single mice): 0.12 % ID/g and 0.08 % ID/g and 0.14 % ID/g and 0.13 % ID/g
- Biodistribution Brain (2 h p.i., single mice): 0.04 % ID/g and 0.02 % ID/g and 0.03 % ID/g
- Biodistribution Heart (2 h p.i., single mice): 0.63 % ID/g and 0.61 % ID/g and 0.79 % ID/g and 0.84 % ID/g
- Biodistribution Intestine (2 h p.i., single mice): 0.78 % ID/g and 0.92 % ID/g and 0.63 % ID/g and 0.68 % ID/g
- Biodistribution Kidney (2 h p.i., single mice): 62.04 % ID/g and 35.60 % ID/g and 49.89 % ID/g and 59.65 % ID/g
- Biodistribution Lung (2 h p.i., single mice): 0.16 % ID/g and 0.09 % ID/g and 0.11 % ID/g and 0.14 % ID/g
- Biodistribution Muscle (2 h p.i., single mice): 0.29 % ID/g and 0.18 % ID/g and 0.22 % ID/g and 0.28 % ID/g
- Biodistribution Pancreas (2 h p.i., single mice): 2.39 % ID/g and 1.89 % ID/g and 2.21 % ID/g and 2.48 % ID/g
- Biodistribution Spleen (2 h p.i., single mice): 0.31 % ID/g and 0.18 % ID/g and 0.21 % ID/g and 0.33 % ID/g
- Biodistribution Tail (2 h p.i., single mice): 0.29 % ID/g and 0.24 % ID/g and 0.36 % ID/g and 0.34 % ID/g
- Biodistribution Testes (2 h p.i., single mice): 0.41 % ID/g and 0.37 % ID/g and 0.39 % ID/g
- Biodistribution Tumour (2 h p.i., single mice): 5.03 % ID/g and 4.25 % ID/g and 5.74 % ID/g and 6.41 % ID/g
